The record followed here is patent US7235533B2, “Compounds and their uses” (Rodaris Pharmaceuticals Limited, priority 2000, dated 2007).

One assay deals with PKA (Homo sapiens, UniProt P17612). The assay is described as follows: PKA inhibition assay. It counts as biochemical. The source says:
(§1) Methods for obtaining A-type and P-type mediators are set out in Caro et al, 1997, and in WO98/11116 and WO98/11117. Protocols for determining characteristic IPG biological activities such as PDH activation, PKA inhibition, acetylCoA activation, fructose-1,6-bis-phosphatase activity and lipogenesis are well known in the art or provided in the experimental section below.
(§2) The compounds of the invention can be tested for one or more the characteristic IPG-P and/or IPG-A activities mentioned above to determine whether they will be suitable for use a IPG mimetics or antagonists. Preferred assays measure the effect of the compounds on PDH phosphatase, PKA or lipogenesis. Protocols for these assays are provided in Caro et al^[14].

For another assay, the target named is T1, PDH phosphatase (Homo sapiens, UniProt Q9P0J1).
T1 sequence (Q9P0J1 72-537): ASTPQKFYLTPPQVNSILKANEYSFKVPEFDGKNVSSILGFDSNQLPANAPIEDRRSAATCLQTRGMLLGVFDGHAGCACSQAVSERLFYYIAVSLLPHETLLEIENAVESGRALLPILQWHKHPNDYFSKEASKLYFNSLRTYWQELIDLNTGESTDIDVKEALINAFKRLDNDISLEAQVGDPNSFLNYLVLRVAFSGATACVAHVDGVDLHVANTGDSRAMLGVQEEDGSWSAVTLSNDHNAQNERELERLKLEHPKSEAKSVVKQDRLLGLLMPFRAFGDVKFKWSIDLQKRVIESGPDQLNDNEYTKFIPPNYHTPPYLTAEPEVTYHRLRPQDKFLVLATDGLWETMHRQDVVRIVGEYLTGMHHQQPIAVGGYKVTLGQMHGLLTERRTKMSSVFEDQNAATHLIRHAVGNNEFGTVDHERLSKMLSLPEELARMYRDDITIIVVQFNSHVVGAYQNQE
As to the kind of experiment: PDH activation assay. To be noted: 100 μM compound. It counts as biochemical.
Source text: as §1, §2

Regarding “6-O-(2-Ammonio-2-deoxy-β-D-glucopyranosyl)-D-chiro-inositol-1-phosphate [RGL1019]”, the results for the PKA inhibition on PKA (0.1 μM compound) and on PKA (10 μM compound) were 32% and 31%, respectively.

Consider `COC1C(O)C(O)C(OC2OC(CO)C(O)C(O)C2N)C(O)C1O` [RGL1015, O-(2-amino-2-deoxy-D-glucopyranosyl)-β(1,6)-3-O-methyl-chiro-inositol], for which the PKA inhibition at PKA (0.1 μM compound) turned out to be 14%; at PKA (1.0 μM compound), 15%; on PKA (10 μM compound), 12%. At PDH phosphatase, this compound displayed a PDH activation of 38%.

For the compound `NC1C(OC2C(O)C(O)C(O)C(O)C2O)OC(CO)C(O)C1O` [RGL1018, 6-O-(2-Amino-2-deoxy-β-D-glucopyranosyl)-D-chiro-inositol], the PKA inhibition at PKA (0.1 μM compound) is recorded as 19%.

In turn, `NC1C(OC2C(O)C(O)C(O)C(O)C2O)OC(COP(=O)(O)O)C(O)C1O` [RGL1023, 1′-D-6-O-(2′-amino-2′-deoxy-6′-phosphate-α-D-glucopyranosyl)-myo-inositol] returned a PDH activation at PDH phosphatase of 14%.

`CO[C@H]1[C@H](O)[C@@H](O)[C@@H](O[C@H]2O[C@H](CO)[C@@H](O)[C@H](O)[C@H]2N)[C@H](O)[C@@H]1O` [RGL1024, O-(2-amino-2-deoxy-D-glucopyranosyl)-α(1,6)-D-3-O-methyl-chiro-inositol]: the PKA inhibition on PKA (0.1 μM compound) is on record as 17%; at PKA (1.0 μM compound) it was 34%; at PKA (10 μM compound), 2%. The PDH activation at PDH phosphatase is reported as 65%.

`N[C@H]1[C@@H](O[C@H]2[C@H](O)[C@H](O)[C@H](O)[C@@H](O)[C@@H]2O)O[C@H](CO)[C@@H](OP(=O)(O)O)[C@@H]1O` [RGL1027, 1′-D-6-O-(2′-amino-2′-deoxy-4′-phosphate-α-D-glucopyranosyl)-myo-inositol]: the values for the PKA inhibition at PKA (0.1 μM compound) and on PKA (10 μM compound) were 18% and 10%, respectively. In addition, the PDH activation at PDH phosphatase came to 132%.

As to `N[C@H]1[C@@H](O[C@H]2[C@H](O)[C@H](O)[C@H](O)[C@@H](O)[C@@H]2O)O[C@H](CO)[C@@H](O)[C@@H]1OP(=O)(O)O` [RGL1029, 1′-D-6-O-(2′-amino-2′-deoxy-3′-phosphate-α-D-glucopyranosyl)-myo-inositol], the PKA inhibition on PKA (0.1 μM compound) turned out to be 59%; at PKA (10 μM compound), 33%. For the same compound, the PDH activation on PDH phosphatase is listed as 361%.

Regarding “O-(2-amino-2deoxy-D-galactopyranosyl)-α(1,6)-D-3-O-methyl-chiro-inositol [RGL1025]”, the PKA inhibition on PKA (0.1 μM compound) is given as 48%; on PKA (1.0 μM compound) it was −13%. On PDH phosphatase, this compound yielded a PDH activation of 17%.
